A word on the AC50: it is the concentration giving half of the maximal activity seen. Broadly, the IC50 is the midpoint of a concentration-inhibition curve. For orientation: EC50 means the concentration at which the effect is half-maximal. What is called CC50 is the concentration that lowers cell viability or growth by half.

Activity calls are given as the source filed them.

Some targets named below: Cytochrome P450 3A4 (Homo sapiens, UniProt P08684); Cytochrome P450 2C9 (Homo sapiens, UniProt P11712); Cytochrome P450 2D6 (Homo sapiens, UniProt P10635).
Assay [1] is described as follows: HGIII-sPLA2 enzyme inhibition potency – biochemical, QFRET, IC50, dose response (AID 743457).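 Note: green fluorescence rise as the enzyme cleaves BODIPY PC-A2 in liposomes.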
Assay [2] addresses Photoreceptor-specific nuclear receptor (Homo sapiens, UniProt Q9Y5X4). Format: functional, cell-based.
For assay [3], the target named is T1, Methionyl-tRNA synthetase, putative (Trypanosoma brucei brucei, UniProt Q38C91).
T1 sequence (Q38C91 whole entry): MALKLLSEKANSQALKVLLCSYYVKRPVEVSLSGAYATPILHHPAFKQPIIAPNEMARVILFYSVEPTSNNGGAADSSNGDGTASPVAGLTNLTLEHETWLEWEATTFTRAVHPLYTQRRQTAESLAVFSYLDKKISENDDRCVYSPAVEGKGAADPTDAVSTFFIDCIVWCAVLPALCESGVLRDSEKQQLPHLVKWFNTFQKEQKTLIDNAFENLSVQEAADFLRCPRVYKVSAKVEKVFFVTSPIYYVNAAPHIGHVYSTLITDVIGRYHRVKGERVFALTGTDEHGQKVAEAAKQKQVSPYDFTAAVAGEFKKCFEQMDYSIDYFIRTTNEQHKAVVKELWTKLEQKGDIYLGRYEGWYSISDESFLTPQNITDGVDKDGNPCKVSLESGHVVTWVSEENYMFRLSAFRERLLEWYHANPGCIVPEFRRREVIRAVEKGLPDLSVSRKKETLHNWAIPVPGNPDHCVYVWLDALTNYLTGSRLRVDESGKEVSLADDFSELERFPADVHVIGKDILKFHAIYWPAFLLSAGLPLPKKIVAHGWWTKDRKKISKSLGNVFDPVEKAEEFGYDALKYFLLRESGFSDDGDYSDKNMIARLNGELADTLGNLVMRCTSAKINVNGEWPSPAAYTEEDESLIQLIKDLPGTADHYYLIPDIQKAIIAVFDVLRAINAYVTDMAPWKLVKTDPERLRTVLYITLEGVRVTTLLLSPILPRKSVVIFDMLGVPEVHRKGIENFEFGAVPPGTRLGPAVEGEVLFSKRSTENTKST
The format is functional, Trypanosoma brucei brucei strain 927/4 GUTat10.1.

Assay [4] is described as follows: Counterscreen for activators of the function of SWI/SNF related, matrix associated, actin dependent regulator of chromatin, subfamily a, member 2 (SMARCA2, BRM): Luminescence-based cell-based high throughput dose response assay to identify non-selective compounds using the VP16 reporter assay. The format is functional. Background: A counterscreen serves to expose hits that act by an unwanted route or on another target.

The nature of assay [5]: Counterscreen for inhibitors of Trypanosoma brucei methionyl tRNA synthetase (MetRS): Luminescence-based cell-based high throughput dose response assay to identify compounds that are cytotoxic to Jurkat human T lymphocyte cells. Format: functional.
Assay [6] deals with T1, Methionyl-tRNA synthetase, putative. Format: functional, Trypanosoma brucei brucei strain 927/4 GUTat10.1. The source holds these as a separate data set.
The target in assay [7] is SWI/SNF-related matrix-associated actin-dependent regulator of chromatin subfamily A member 2 (Homo sapiens, UniProt P51531). The assay can be described thus: Luminescence-based cell-based high throughput dose response assay to identify activators of the function of SWI/SNF related, matrix associated, actin dependent regulator of chromatin, subfamily a, member 2 (SMARCA2, BRM). Format: functional.
Sequence of SWI/SNF-related matrix-associated actin-dependent regulator of chromatin subfamily A member 2 (P51531 whole entry): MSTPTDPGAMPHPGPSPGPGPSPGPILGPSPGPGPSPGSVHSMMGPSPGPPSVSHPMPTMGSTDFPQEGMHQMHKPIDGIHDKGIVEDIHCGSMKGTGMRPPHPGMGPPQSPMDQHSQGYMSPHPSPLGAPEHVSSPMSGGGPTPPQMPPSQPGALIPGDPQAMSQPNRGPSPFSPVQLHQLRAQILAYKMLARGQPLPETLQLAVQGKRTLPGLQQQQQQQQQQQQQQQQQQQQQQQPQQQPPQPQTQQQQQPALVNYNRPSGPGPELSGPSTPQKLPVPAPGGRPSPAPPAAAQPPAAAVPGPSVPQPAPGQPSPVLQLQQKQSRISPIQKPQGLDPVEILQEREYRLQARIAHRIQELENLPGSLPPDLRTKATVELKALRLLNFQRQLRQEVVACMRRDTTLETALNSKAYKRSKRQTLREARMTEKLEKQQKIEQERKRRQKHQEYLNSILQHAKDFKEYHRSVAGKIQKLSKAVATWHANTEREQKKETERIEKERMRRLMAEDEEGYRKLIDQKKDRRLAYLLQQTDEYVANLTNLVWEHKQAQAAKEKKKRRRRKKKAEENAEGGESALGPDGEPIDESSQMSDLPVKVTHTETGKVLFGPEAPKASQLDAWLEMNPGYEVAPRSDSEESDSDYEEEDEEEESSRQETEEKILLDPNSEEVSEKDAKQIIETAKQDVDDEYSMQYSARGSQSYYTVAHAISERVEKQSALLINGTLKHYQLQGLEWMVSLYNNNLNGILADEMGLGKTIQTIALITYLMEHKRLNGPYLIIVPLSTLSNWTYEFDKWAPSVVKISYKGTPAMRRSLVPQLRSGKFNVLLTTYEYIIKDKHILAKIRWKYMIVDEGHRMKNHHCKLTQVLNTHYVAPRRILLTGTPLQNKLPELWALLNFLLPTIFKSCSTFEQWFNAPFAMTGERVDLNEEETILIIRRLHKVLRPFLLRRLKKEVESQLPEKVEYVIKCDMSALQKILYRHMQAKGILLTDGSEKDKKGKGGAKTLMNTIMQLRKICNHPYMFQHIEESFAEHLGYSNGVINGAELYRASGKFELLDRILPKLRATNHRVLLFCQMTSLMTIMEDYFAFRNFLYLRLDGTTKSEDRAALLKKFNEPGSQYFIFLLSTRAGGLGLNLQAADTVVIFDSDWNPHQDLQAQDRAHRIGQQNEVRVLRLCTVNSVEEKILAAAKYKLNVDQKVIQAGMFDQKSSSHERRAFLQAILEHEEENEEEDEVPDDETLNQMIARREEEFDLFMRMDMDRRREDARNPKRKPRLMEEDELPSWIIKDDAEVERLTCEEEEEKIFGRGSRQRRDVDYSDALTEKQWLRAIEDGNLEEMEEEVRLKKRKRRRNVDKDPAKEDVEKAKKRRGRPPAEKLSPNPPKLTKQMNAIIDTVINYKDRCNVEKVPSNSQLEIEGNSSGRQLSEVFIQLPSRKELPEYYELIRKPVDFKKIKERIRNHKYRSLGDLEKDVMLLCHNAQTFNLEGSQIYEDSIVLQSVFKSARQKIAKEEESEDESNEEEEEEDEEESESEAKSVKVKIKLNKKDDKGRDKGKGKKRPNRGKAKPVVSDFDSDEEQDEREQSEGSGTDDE

The target in assay [8] is Beta-lactamase (Salmonella choleraesuis (strain SC-B67), UniProt Q5J463). The assay can be described thus: Epi-absorbance-based counterscreen for selective VIM-2 inhibitors: dose response biochemical high throughput screening assay to identify inhibitors of TEM-1 serine-beta-lactamase.
Assay [9] concerns the target T2, Beta-lactamase (Pseudomonas aeruginosa, UniProt Q79MP6). The assay can be described thus: inhibition of IMP-1 beta-lactamase activity – biochemical, epi-absorbance, selectivity assay for VIM-2 inhibitor project, dose response (AID 1920).
Assay [10] concerns the target T2, Beta-lactamase. Description: […] counterscreen for selective VIM-2 inhibitors: dose response biochemical high throughput screening assay to identify inhibitors of IMP-1 metallo-beta-lactamase.
Assay [11] deals with Matrix metalloproteinase-14 (Homo sapiens, UniProt P50281). Description: Dose Response confirmation of uHTS hits for a small molecule inhibitors of MT1-MMP activation in a fluorescence assay set 1. The format is functional.
The nature of assay [12]: viability of HCT116 lacking mutant beta-catenin – cell-based, human colon tumor, dose response (AID 1045).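 Note: HCT116 colon tumor cells with beta catenin knocked out; cells exposed to compound for 60 hours.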 Format: functional.
The nature of assay [13]: viability of PTEN-deleted HCT116 cells – cell-based, HCT116 PTEN knockout, dose response (AID 1047).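 Note: HCT116 colon tumor cells with PTEN knocked out; cells exposed to compound for 60 hours before readout; potency for loss of cell viability measured by luminescence.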 Format: functional.
Assay [14] can be described thus: viability loss of HMLE_sh_eGFP cells – cell-based, luminescence, counter-screen for HMLE_sh_ECad selective toxicity project, dose response (AID 463074).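 Note: HMLE human mammary epithelial cells expressing control shRNA against eGFP.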 The format is functional, Homo sapiens.
The subject of assay [15] is Vero. Description: cells. Format: functional. The conditions noted are these: Chlorocebus sabaeus.
Assay [16] in a line: Luminescence Cell-Based Dose Retest to Confirm Inhibitors of Cancer Stem Cells. [Related pubchem assays (depositor defined):AID2717, AID2721]. Particulars: Homo sapiens. Format: functional.
For assay [17], the target named is DNA dC->dU-editing enzyme APOBEC-3A (Homo sapiens, UniProt P31941). The assay can be described thus: Dose Response confirmation of small molecule APOBEC3A DNA Deaminase Inhibitors via a fluorescence-based single-stranded DNA deaminase assay. [Related pubchem assays (depositor defined):AID493011, AID493024]. The format is functional.
Sequence of DNA dC->dU-editing enzyme APOBEC-3A (P31941 whole entry): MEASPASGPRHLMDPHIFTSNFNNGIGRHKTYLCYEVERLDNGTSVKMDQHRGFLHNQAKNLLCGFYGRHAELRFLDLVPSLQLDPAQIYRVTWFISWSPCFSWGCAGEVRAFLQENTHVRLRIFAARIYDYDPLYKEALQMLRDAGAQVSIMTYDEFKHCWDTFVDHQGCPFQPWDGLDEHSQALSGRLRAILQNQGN
Assay [18] concerns the target DNA dC->dU-editing enzyme APOBEC-3G (Homo sapiens, UniProt Q9HC16). Format: functional.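 Note: Dose-response counterscreen measuring inhibition of APOBEC3G DNA deaminase activity, run while confirming APOBEC3A inhibitors.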
The target of assay [19] is Histone-lysine N-methyltransferase NSD2 (Homo sapiens, UniProt O96028). Format: biochemical.
For another assay, the target named is Beta-galactosidase (Escherichia coli, UniProt Q8VNN2). Description: Dose response counterscreen for EBI2 assay utilizing the enzyme, b-galactosidase. The format is functional.
Sequence of Beta-galactosidase (Q8VNN2 whole entry): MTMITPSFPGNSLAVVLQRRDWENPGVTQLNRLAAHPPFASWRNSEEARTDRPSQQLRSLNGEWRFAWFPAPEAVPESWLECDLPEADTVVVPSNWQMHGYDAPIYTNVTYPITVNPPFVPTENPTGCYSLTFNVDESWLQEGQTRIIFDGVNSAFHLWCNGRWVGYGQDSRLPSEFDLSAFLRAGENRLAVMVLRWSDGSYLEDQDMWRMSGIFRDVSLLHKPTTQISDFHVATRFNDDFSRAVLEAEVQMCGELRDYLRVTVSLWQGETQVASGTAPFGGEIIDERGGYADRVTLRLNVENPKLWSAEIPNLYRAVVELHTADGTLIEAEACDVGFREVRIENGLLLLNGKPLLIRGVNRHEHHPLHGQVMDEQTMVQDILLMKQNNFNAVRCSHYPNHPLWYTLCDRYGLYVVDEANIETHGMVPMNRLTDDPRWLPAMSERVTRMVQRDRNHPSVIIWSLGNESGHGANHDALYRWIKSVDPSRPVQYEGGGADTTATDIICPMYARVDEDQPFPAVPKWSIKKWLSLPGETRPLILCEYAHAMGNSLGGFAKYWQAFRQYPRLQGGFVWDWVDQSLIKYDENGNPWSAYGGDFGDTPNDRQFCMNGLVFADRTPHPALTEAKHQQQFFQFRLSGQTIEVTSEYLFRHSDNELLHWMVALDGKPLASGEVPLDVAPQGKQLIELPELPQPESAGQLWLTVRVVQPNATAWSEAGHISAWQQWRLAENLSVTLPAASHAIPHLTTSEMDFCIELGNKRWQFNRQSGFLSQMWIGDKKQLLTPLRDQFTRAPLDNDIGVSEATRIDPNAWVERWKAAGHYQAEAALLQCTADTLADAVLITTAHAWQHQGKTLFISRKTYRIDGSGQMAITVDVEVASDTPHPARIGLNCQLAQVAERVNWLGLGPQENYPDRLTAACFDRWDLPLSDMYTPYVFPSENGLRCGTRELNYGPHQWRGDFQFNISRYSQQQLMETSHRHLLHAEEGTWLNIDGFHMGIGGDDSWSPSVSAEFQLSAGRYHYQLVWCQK
A short description of assay [20]: cytotoxicity in HEK293 background cells – cell-based, dry powder, set 2, counter-screen for EBV LMP1 inhibitor project, dose response (AID 624374). The format is functional.
Assay [21] is described as follows: inhibitors of EBV LMP1 NF-kappaB signaling – cell-based, luciferase reporter, luminescence, dry powder, set 2, dose response (AID 624376). Format: functional. For orientation: Reporter assays use an easily measured gene product as a stand-in for the process of interest.
Assay [22] deals with Fructose-bisphosphate aldolase (Mycobacterium tuberculosis, UniProt P9WQA3). The assay can be described thus: Fluorescence-based biochemical high throughput dose response assay for inhibitors of the fructose-bisphosphate aldolase (FBA) of M. tuberculosis. The format is functional.
Sequence of Fructose-bisphosphate aldolase (P9WQA3 whole entry): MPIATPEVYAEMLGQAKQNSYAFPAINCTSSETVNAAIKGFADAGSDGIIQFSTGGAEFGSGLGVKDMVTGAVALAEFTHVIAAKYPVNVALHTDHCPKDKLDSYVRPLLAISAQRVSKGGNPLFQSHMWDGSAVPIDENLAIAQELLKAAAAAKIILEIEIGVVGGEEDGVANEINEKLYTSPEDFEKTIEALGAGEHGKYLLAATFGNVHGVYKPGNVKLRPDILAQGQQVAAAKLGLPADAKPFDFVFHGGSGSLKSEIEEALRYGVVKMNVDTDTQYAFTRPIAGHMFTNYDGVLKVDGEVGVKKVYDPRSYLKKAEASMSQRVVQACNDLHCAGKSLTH
A short description of assay [23]: Late stage assay provider results from the probe development effort to identify inhibitors of the Plasmodium falciparum M17 Leucine Aminopeptidase (M17LAP): radiolabel-based cell-based dose response assay to identify compounds that inhibit P. falciparum growth in RBCs Set 2. The format is functional.
A further assay concerns A549. Description: viability loss in A549 cells – cell-based, plate reader, cherry-pick samples, cytotoxicity control, dose response (AID 687028). Particulars: Homo sapiens. The format is functional.
In the next assay the target is Albumin (Bos taurus, UniProt P02769). Description: Counterscreen for inhibitors of T-cell receptor (TCR)-CD3 interaction: Fluorescence-based biochemical high throughput dose response assay to identify inhibitors of T-cell receptor (TCR)-CD3 interaction using a TAMRA-labeled BSA probe. Format: functional.
Assay [24] has as its system Vero. Description: viability loss in Vero cells – cell-based, plate reader, cherry-pick samples, cytotoxicity control, dose response (AID 687020). Format: functional. The conditions noted are these: Chlorocebus sabaeus.

T2 sequence (Q79MP6 whole entry): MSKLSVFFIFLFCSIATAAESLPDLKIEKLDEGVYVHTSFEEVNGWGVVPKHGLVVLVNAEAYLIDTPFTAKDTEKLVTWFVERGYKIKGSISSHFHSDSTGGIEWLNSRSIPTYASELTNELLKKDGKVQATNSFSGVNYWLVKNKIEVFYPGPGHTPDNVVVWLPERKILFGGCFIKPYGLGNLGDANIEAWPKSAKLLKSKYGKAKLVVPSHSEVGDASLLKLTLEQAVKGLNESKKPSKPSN
Sequence of Cytochrome P450 2C9 (P11712 whole entry): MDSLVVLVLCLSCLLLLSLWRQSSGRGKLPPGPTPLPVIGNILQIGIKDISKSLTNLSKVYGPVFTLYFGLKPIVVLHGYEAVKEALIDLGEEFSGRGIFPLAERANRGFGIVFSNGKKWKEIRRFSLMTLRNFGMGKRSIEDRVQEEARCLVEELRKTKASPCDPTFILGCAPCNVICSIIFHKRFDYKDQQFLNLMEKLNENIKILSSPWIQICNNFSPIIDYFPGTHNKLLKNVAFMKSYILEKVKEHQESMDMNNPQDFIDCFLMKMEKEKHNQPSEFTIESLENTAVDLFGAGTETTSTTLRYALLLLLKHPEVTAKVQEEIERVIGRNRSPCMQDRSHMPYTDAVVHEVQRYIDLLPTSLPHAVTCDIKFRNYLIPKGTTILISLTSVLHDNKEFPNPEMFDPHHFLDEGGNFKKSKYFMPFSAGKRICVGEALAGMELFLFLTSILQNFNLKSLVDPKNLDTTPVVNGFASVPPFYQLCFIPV
Sequence of Photoreceptor-specific nuclear receptor (Q9Y5X4 whole entry): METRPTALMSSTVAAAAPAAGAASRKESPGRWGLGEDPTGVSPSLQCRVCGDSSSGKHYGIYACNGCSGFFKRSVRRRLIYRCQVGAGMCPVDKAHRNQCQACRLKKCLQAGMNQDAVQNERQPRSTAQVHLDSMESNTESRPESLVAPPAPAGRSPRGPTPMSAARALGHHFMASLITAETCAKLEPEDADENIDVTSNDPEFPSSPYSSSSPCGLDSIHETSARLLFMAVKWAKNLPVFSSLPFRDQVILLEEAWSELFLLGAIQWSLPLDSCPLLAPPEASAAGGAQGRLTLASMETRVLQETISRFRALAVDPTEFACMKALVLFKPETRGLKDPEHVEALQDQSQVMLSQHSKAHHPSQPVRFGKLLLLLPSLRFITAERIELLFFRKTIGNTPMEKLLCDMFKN
Sequence of Cytochrome P450 3A4 (P08684 whole entry): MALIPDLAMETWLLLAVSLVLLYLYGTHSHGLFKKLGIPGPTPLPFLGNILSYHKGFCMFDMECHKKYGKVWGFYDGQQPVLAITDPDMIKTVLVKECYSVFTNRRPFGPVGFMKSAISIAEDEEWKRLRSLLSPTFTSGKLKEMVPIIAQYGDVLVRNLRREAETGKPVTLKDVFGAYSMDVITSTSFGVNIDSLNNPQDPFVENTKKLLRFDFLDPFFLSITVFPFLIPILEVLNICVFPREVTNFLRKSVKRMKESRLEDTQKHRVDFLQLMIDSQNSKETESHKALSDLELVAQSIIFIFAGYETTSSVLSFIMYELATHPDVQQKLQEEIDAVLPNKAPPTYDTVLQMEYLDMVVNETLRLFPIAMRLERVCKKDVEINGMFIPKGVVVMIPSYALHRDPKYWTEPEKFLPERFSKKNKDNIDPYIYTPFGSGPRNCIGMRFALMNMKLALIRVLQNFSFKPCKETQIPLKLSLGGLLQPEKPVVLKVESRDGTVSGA

For the molecule `S=C(Nc1ccccc1)Nc1nccs1`, the concentration at half-maximal activity (AC50) on Cytochrome P450 3A4 is 15.8 µM (inconclusive); on Cytochrome P450 2C9 it was 20 µM (inconclusive); at Cytochrome P450 2D6 it was 31.6 µM (inconclusive). Further, the IC50 in assay [1] is > 122 µM (inactive).
As for `Cc1cccc(OCCCC(=O)Nc2nc3ccccc3[nH]2)c1`, the half-maximal inhibitory concentration (IC50) in assay [2] is 2.88 µM (active); in assay [3] it was 4.34 µM (active); in assay [5], 29.6 µM (inactive); in assay [6] it was 39.5 µM (inactive). Moreover, the EC50 in assay [4] and in assay [7] was > 91.1 µM (inactive) throughout.
With `CCN(CC)C(=O)CSc1nc2ccc(NC(=O)CSc3nccn3C)cc2s1`, the IC50 at Beta-lactamase [8], at Beta-lactamase [9] and at Beta-lactamase [10] was > 59.6 µM (inactive) each time.
As for `O=C(NNc1c2ccccc2nc2ccccc12)c1cc2ccccc2cc1O`, the IC50 in assay [11] was 24.4 µM (inactive). For the same molecule, the EC50 in assay [12] was 7.12 µM (active); in assay [13], 6.4 µM (active). Moreover, the results for the half-maximal activity concentration (AC50) in assay [14] and in assay [16] were 28.2 µM (active) and 27 µM (active), respectively. For the same molecule, the CC50 with Vero [15] is 2.61 µM (active).
`Cc1cc(/C=C2\C(=O)NC(=O)N(c3cccc(F)c3)C2=O)c(C)n1-c1cc(C(=O)O)cc(C(=O)O)c1`: the IC50 is 16.8 µM (active) in [17] and 27.4 µM (active) in assay [18]. Besides, the AC50 in [19] is > 20 µM (inactive).
In the case of `COC(=O)c1cc(=O)n(Cc2ccc(F)cc2)/c(=N/c2ccccc2)s1`, the IC50 on Beta-galactosidase was > 80 µM (inactive). Besides, the half-maximal activity concentration (AC50) in assay [16] is 4.82 µM (active).
For the molecule `O=C(Cc1ccccn1)NCC[C@@H]1CC[C@H](NC(=O)Nc2ccc(Cl)cc2)[C@@H](CO)O1`, the AbsAC35 in assay [20] stood at 102.52 µM; in assay [21], 74.18 µM.
On to `COC1=Nc2ccccc2N2CCN=C12`, for which the IC50 in assay [22] was 2.07 µM (active).
`CCCCc1ccc(CC(=O)NO)cc1`: the 50% inhibitory concentration (IC50) in assay [23] is 4.3 µM (active).
In the case of `O=C(NNC(=O)c1ccccc1O)c1ccccc1O`, the AC50 with A549 is 2.46 µM (active); with Vero [24], 1.05 µM (active). For the same molecule, on Albumin, the IC50 is > 93.9 µM (inactive).
